Source: ChEMBL document CHEMBL3885861, “Open TG-GATES”

Species: Rattus norvegicus
Experiment: Open TG-GATES - Regimen: Single
Format: toxicity, organism-based, Sprague-Dawley
Parameters: regimen Single, gender Male, age 6 weeks
Conditions: in vivo, po, route gavage; for APTT / Bas / Eos / Fbg / Hb / Ht / Lym / MCH / MCHC / MCV / Mono / Neu / PT / Plat / RBC / Ret / WBC: tissue Blood; for KIDNEY_L / KIDNEY_R / KIDNEY_TOTAL: tissue Kidney; for LIVER: tissue Liver; for A/G / ALP / ALT / AST / BUN / CRE / Ca / Cl / DBIL / GLC / IP / K / LDH / Na / PL / RALB / TBIL / TC / TG / TP / gamma-GTP: tissue Plasma
[1] = 0 mg/kg, 3 h, dose level Control
[2] = 0 mg/kg, 6 h, dose level Control
[3] = 0 mg/kg, 9 h, dose level Control
[4] = 0 mg/kg, 24 h, dose level Control

## COc1ccc(Cc2nccc3cc(OC)c(OC)cc23)cc1OC [PAPAVERINE]
[1]
  TERMINAL_BW: 223.5 g
  APTT: 21.8 s
  Bas: 0%
  Eos: 0.8%
  Fbg: 332.6 mg/dL
  Hb: 13.5 g/dL
  Ht: 40.3%
  Lym: 80.6%
  MCH: 21.3 pg
  MCHC: 33.5%
  MCV: 63.4 fL
  Mono: 2.2%
  Neu: 15%
  PT: 15.8 s
  Plat: 108.7 x10_4/uL
  RBC: 637.4 x10_4/ul
  Ret: 7.9%
  WBC: 110.9 x10_2/uL
  KIDNEY_L: 1 g
  KIDNEY_R: 1 g
  KIDNEY_TOTAL: 2 g
  LIVER: 10.2 g
  A/G: 1.2
  ALP: 1651.2 IU/L
  ALT: 42.8 IU/L
  AST: 73 IU/L
  BUN: 14 mg/dL
  CRE: 0.1 mg/dL
  Ca: 11 mg/dL
  Cl: 108.6 meq/L
  DBIL: 0 mg/dL
  GLC: 193.6 mg/dL
  IP: 7.8 mg/dL
  K: 4 meq/L
  LDH: 147.2 IU/L
  Na: 141.6 meq/L
  PL: 140.2 mg/dL
  RALB: 3 g/dL
  TBIL: 0.01 mg/dL
  TC: 82.6 mg/dL
  TG: 55 mg/dL
  TP: 5.5 g/dL
  gamma-GTP: 2 IU/L
[2]
  TERMINAL_BW: 214 g
  APTT: 23 s
  Bas: 0%
  Eos: 0.6%
  Fbg: 325.8 mg/dL
  Hb: 13.8 g/dL
  Ht: 41.4%
  Lym: 82.8%
  MCH: 20.8 pg
  MCHC: 33.3%
  MCV: 62.5 fL
  Mono: 2.2%
  Neu: 13.4%
  PT: 15.9 s
  Plat: 116.4 x10_4/uL
  RBC: 664 x10_4/ul
  Ret: 7.4%
  WBC: 118.9 x10_2/uL
  KIDNEY_L: 0.9 g
  KIDNEY_R: 0.9 g
  KIDNEY_TOTAL: 1.8 g
  LIVER: 9.4 g
  A/G: 1.2
  ALP: 1310.2 IU/L
  ALT: 38.4 IU/L
  AST: 74.4 IU/L
  BUN: 10 mg/dL
  CRE: 0.1 mg/dL
  Ca: 11 mg/dL
  Cl: 106.2 meq/L
  DBIL: 0.002 mg/dL
  GLC: 180.6 mg/dL
  IP: 8.8 mg/dL
  K: 4.3 meq/L
  LDH: 159.6 IU/L
  Na: 140.8 meq/L
  PL: 131.6 mg/dL
  RALB: 2.9 g/dL
  TBIL: 0.01 mg/dL
  TC: 79.2 mg/dL
  TG: 47.6 mg/dL
  TP: 5.3 g/dL
  gamma-GTP: 2 IU/L
[3]
  TERMINAL_BW: 213.9 g
  APTT: 22.9 s
  Bas: 0%
  Eos: 1%
  Fbg: 312.8 mg/dL
  Hb: 13.1 g/dL
  Ht: 39.9%
  Lym: 81.2%
  MCH: 20.3 pg
  MCHC: 33%
  MCV: 61.6 fL
  Mono: 2.4%
  Neu: 14.4%
  PT: 15.6 s
  Plat: 107.7 x10_4/uL
  RBC: 647.6 x10_4/ul
  Ret: 7.9%
  WBC: 110.4 x10_2/uL
  KIDNEY_L: 0.9 g
  KIDNEY_R: 0.9 g
  KIDNEY_TOTAL: 1.9 g
  LIVER: 9.1 g
  A/G: 1.3
  ALP: 1489.8 IU/L
  ALT: 41.2 IU/L
  AST: 69.4 IU/L
  BUN: 11.2 mg/dL
  CRE: 0.1 mg/dL
  Ca: 10.9 mg/dL
  Cl: 105.8 meq/L
  DBIL: 0 mg/dL
  GLC: 190.8 mg/dL
  IP: 9.1 mg/dL
  K: 4.2 meq/L
  LDH: 169 IU/L
  Na: 140.6 meq/L
  PL: 134.6 mg/dL
  RALB: 3 g/dL
  TBIL: 0.016 mg/dL
  TC: 78.4 mg/dL
  TG: 75 mg/dL
  TP: 5.3 g/dL
  gamma-GTP: 1.6 IU/L
[4]
  TERMINAL_BW: 237.4 g
  APTT: 21.6 s
  Bas: 0%
  Eos: 1%
  Fbg: 315.8 mg/dL
  Hb: 13.5 g/dL
  Ht: 40%
  Lym: 81%
  MCH: 21 pg
  MCHC: 33.6%
  MCV: 62.6 fL
  Mono: 2.8%
  Neu: 14.6%
  PT: 16 s
  Plat: 106.2 x10_4/uL
  RBC: 639.4 x10_4/ul
  Ret: 7.5%
  WBC: 110.4 x10_2/uL
  KIDNEY_L: 1 g
  KIDNEY_R: 1 g
  KIDNEY_TOTAL: 2.1 g
  LIVER: 11.3 g
  A/G: 1.3
  ALP: 1563.2 IU/L
  ALT: 46.2 IU/L
  AST: 72.2 IU/L
  BUN: 15.4 mg/dL
  CRE: 0.1 mg/dL
  Ca: 10.8 mg/dL
  Cl: 106.2 meq/L
  DBIL: 0 mg/dL
  GLC: 198.2 mg/dL
  IP: 7.9 mg/dL
  K: 4.4 meq/L
  LDH: 179.4 IU/L
  Na: 143 meq/L
  PL: 142.6 mg/dL
  RALB: 3 g/dL
  TBIL: 0.01 mg/dL
  TC: 77 mg/dL
  TG: 87.8 mg/dL
  TP: 5.3 g/dL
  gamma-GTP: 1.8 IU/L
40 mg/kg, 3 h, dose level Low
  TERMINAL_BW: 231 g
  APTT: 22.7 s
  Bas: 0%
  Eos: 0.8%
  Fbg: 308.6 mg/dL
  Hb: 13.3 g/dL
  Ht: 39.9%
  Lym: 77%
  MCH: 20.8 pg
  MCHC: 33.4%
  MCV: 62.1 fL
  Mono: 2.2%
  Neu: 19%
  PT: 15.5 s
  Plat: 111.6 x10_4/uL
  RBC: 643.2 x10_4/ul
  Ret: 8.1%
  WBC: 104.1 x10_2/uL
  KIDNEY_L: 0.9 g
  KIDNEY_R: 0.9 g
  KIDNEY_TOTAL: 1.9 g
  LIVER: 10.4 g
  A/G: 1.2
  ALP: 1691.2 IU/L
  ALT: 41.2 IU/L
  AST: 79 IU/L
  BUN: 13.4 mg/dL
  CRE: 0.1 mg/dL
  Ca: 11.1 mg/dL
  Cl: 107.2 meq/L
  DBIL: 0 mg/dL
  GLC: 179 mg/dL
  IP: 7.7 mg/dL
  K: 4 meq/L
  LDH: 190.4 IU/L
  Na: 141.6 meq/L
  PL: 135 mg/dL
  RALB: 3 g/dL
  TBIL: 0.006 mg/dL
  TC: 75.2 mg/dL
  TG: 65.6 mg/dL
  TP: 5.4 g/dL
  gamma-GTP: 1.6 IU/L
40 mg/kg, 6 h, dose level Low
  TERMINAL_BW: 221.8 g
  APTT: 21.2 s
  Bas: 0%
  Eos: 0.8%
  Fbg: 322.4 mg/dL
  Hb: 13.4 g/dL
  Ht: 39.9%
  Lym: 78.2%
  MCH: 20.7 pg
  MCHC: 33.7%
  MCV: 61.5 fL
  Mono: 2.8%
  Neu: 16.8%
  PT: 15.8 s
  Plat: 129.6 x10_4/uL
  RBC: 647.8 x10_4/ul
  Ret: 7.6%
  WBC: 105.5 x10_2/uL
  KIDNEY_L: 1 g
  KIDNEY_R: 1 g
  KIDNEY_TOTAL: 1.9 g
  LIVER: 9.4 g
  A/G: 1.2
  ALP: 1422 IU/L
  ALT: 36.2 IU/L
  AST: 72.4 IU/L
  BUN: 10.6 mg/dL
  CRE: 0.1 mg/dL
  Ca: 11.1 mg/dL
  Cl: 106.8 meq/L
  DBIL: 0.002 mg/dL
  GLC: 179.8 mg/dL
  IP: 8.9 mg/dL
  K: 4.3 meq/L
  LDH: 161.2 IU/L
  Na: 140.6 meq/L
  PL: 124.6 mg/dL
  RALB: 3 g/dL
  TBIL: 0.012 mg/dL
  TC: 71.4 mg/dL
  TG: 64 mg/dL
  TP: 5.4 g/dL
  gamma-GTP: 2.2 IU/L
40 mg/kg, 9 h, dose level Low
  TERMINAL_BW: 221.9 g
  APTT: 21 s
  Bas: 0%
  Eos: 1%
  Fbg: 325 mg/dL
  Hb: 13.5 g/dL
  Ht: 40.5%
  Lym: 78.6%
  MCH: 20.4 pg
  MCHC: 33.4%
  MCV: 61.2 fL
  Mono: 3%
  Neu: 16.6%
  PT: 15.4 s
  Plat: 114.2 x10_4/uL
  RBC: 661.8 x10_4/ul
  Ret: 7.6%
  WBC: 78.8 x10_2/uL
  KIDNEY_L: 1 g
  KIDNEY_R: 1 g
  KIDNEY_TOTAL: 1.9 g
  LIVER: 9.4 g
  A/G: 1.3
  ALP: 1463.2 IU/L
  ALT: 37 IU/L
  AST: 70.2 IU/L
  BUN: 11 mg/dL
  CRE: 0.1 mg/dL
  Ca: 11.1 mg/dL
  Cl: 107.4 meq/L
  DBIL: 0 mg/dL
  GLC: 183.6 mg/dL
  IP: 9.2 mg/dL
  K: 4 meq/L
  LDH: 150.2 IU/L
  Na: 140.6 meq/L
  PL: 133.6 mg/dL
  RALB: 3 g/dL
  TBIL: 0.02 mg/dL
  TC: 73.2 mg/dL
  TG: 69.8 mg/dL
  TP: 5.4 g/dL
  gamma-GTP: 1.6 IU/L
40 mg/kg, 24 h, dose level Low
  TERMINAL_BW: 234.3 g
  APTT: 21.8 s
  Bas: 0%
  Eos: 0.8%
  Fbg: 309.2 mg/dL
  Hb: 13.5 g/dL
  Ht: 40.7%
  Lym: 82.6%
  MCH: 21.3 pg
  MCHC: 33.3%
  MCV: 63.9 fL
  Mono: 2.4%
  Neu: 13.2%
  PT: 16.3 s
  Plat: 114.1 x10_4/uL
  RBC: 636.4 x10_4/ul
  Ret: 7.1%
  WBC: 90.3 x10_2/uL
  KIDNEY_L: 1 g
  KIDNEY_R: 1 g
  KIDNEY_TOTAL: 2 g
  LIVER: 10.8 g
  A/G: 1.3
  ALP: 1546.4 IU/L
  ALT: 47 IU/L
  AST: 79 IU/L
  BUN: 16.2 mg/dL
  CRE: 0.1 mg/dL
  Ca: 10.6 mg/dL
  Cl: 107.4 meq/L
  DBIL: 0 mg/dL
  GLC: 195.4 mg/dL
  IP: 6.9 mg/dL
  K: 4.4 meq/L
  LDH: 207.6 IU/L
  Na: 142.8 meq/L
  PL: 126.6 mg/dL
  RALB: 3.1 g/dL
  TBIL: 0.004 mg/dL
  TC: 67.6 mg/dL
  TG: 123 mg/dL
  TP: 5.4 g/dL
  gamma-GTP: 1.2 IU/L
